Consider one molecule from patent publication US11590110B2, “Compositions and methods for reactivating latent immunodeficiency virus using a GSK-3 inhibitor” (priority 2017, dated 2023).

SMILES strings stand for the structures. Read-outs that look alike come from different tables or passages of the source.

One series has as its system NK cells. Put plainly: Example 5: NK cell viability and cytotoxic effector functions. The class given is cell-based, human. Here is the method: Density centrifugation using a Ficoll-Hypaqua gradient was performed to purify PBMCs from continuous-flow centrifugation leukapheresis product. Subsequently, cells were plated in 96-well U-bottom plated in complete RPMI, which was supplemented with 10 ng/ml recombinant IL-15 (R&D systems), treated with LRAs or vehicle controls (DMSO) and incubated at 37° C., 5% CO2 for 48 h. To assay NK cell functionality, cells were analyzed by flow cytometry. Briefly, 1×10^6 cells/200 ul were stained with FITC anti-CD107 antibodies (1:50, BD Biosciences), mixed with 1×10^5 K562 cells and incubated at 37° C., 5% CO2 for 1 h. Then, in order to enhance intracellular cytokine staining, protein transport was blocked with Brefeldin A (Sigma-Aldrich) and golgi stop (BD Biosciences) according to the manufacturer instructions and the cells were incubated at 37° C., 5% CO2 for another 5 h. Afterwards, cells were spun down (5 min, 330×g, RT), the supernatant was removed and the cells were stained using Zombie violet (1:50, Biolegend) according to the manufacturer protocol. Subsequently, cells were stained for surface proteins staining with the following antibodies: APC/Cy7 anti CD3 (1:100, Biolegend), APC anti CD14 (1:100, Biolegend), APC anti CD19 (1:100, Biolegend), PE/Cy7 anti CD56 (1:100, BD Biosciences), Alexa Fluor 700 anti CD16 (1:100, Biolegend), PE anti CD7 (1:50, Thermo Fisher Scientific) for 15 min at room temperature. Next, cells were permeabilized and fixed using the Foxp3/Transcription Factor Fixation/Permeabilization Concentrate and Diluent kit (eBioscience) and stained intracellularly with PerCP/Cy5 anti IFN-γ (1:50, BD Bioscience) in FOXP3 perm/wash buffer for 1 h at 4° C. Finally, cells were washed and fixed in 1% paraformaldehyde/PBS, and subjected to flow cytometry analysis on a LSRII (BD Biosciences). Data were obtained using FlowJo software (Treestar). Samples were gated for singlets, live, CD3 negative, CD14/CD19 negative and CD7 positive cells as previously described (York, Milush). CD16high/CD56dim, CD16dim/CD56high cells were considered for analysis of IFN-γ and CD107a positivity. All gates were defined, based on fluorescence minus one (FMO) samples.

For another series, the system named is CD4+ T cells. In words: Example 5: lactate production analysis. The series is classed as cell-based, human. As to conditions: 24 hours of treatment. As for the experimental part:
Subsequently, media of the treated samples were tested for production of L-lactated using a Glycolysis Cell-Based Assay Kit (Cayman Chemical). This test measures the quantity of formazan, an artificial chromogenic dye that results from the reduction of tetrazolium salts in the presence of NADH in the culture media. Colored formazan absorbs between 490 and 520 nm and can be detected by a plate reader. Since lactate dehydrogenase catalyzes the reaction between NAD+ and lactate, yielding pyruvate and NADH, which directly reduces the tetrazolium salt, the quantity of formazan produced is proportional to the quantity of L-lactate in the culture medium, and is thus an indirect measurement of glycolysis. In order to determine specific L-Lactate concentration, a standard curve was obtained analyzing absorbance of known concentration of L-lactate as indicated in the manufacturer's protocol.

For series [1] the following is noted: cited from earlier work.
The mark [2] stands for this setting: pre-treatment 1 μM 48 hours, then K562 cells.

As to `O=c1sn(-c2cccc3ccccc23)c(=O)n1Cc1ccccc1` [Tideglusib, 4-benzyl-2-(naphthalen-1-yl)-1,2,4-thiadiazolidine-3,5-dione], the “viability of NK cells” value with NK cells (48 hours) is reported as “did not reduce viability”. Also, in the series with NK cells (setting [2]), the “IFN-γ production in NK cells” value was “increase in IFN-γ production” and the “increase of surface expression of CD107a in NK cells” value was “less marked”. Besides, in the series with CD4+ T cells, the “L-lactate in the culture media” value is recorded as “did not result in an increase of L-lactate”. The “side effects / tolerability in humans” value in series [1] was “safe (i.e., non-toxic) and well tolerated in humans”. For the same molecule, the “side effects / tolerability in humans” value in series [1] (listed as tideglusib) is on record as “very low incidence of side-effects”. Besides, the “moderate, asymptomatic and fully reversible increase of transaminase, share of cases” value in series [1] (prolonged treatment) is listed as 30%.
